The numbers were not newly measured in patent publication US20240268433A1, “Nutritional Compositions for Preserving Muscle Mass” (Dutch Medical Food B.V., priority 2021, published 2024), which cites them from elsewhere.

Data set [1] concerns elderly adults exposed to bedrest. Conditions: bed rest induced muscle atrophy.
For data set [2], the system named is female individuals that complain about their sleep quality.
For data set [3], the system named is adults between the age of 25 and 59 years.
Another data set deals with GABAA receptor. The settings on record: chicken; administered with serine.

On to `CC(C)(O)CC(=O)O` [HMB, Beta-hydroxy beta-methylbutyrate], for which the “derangements in skeletal muscle metabolism and mitochondria” value in data set [1] was “able to attenuate and prevent derangements in skeletal muscle metabolism and mitochondria”. In the case of `NCC(=O)O` [glycine], the daytime sleepiness result in data set [2] (especially in the morning) is “positive effect”. Besides, the “subjective quality of sleep” value in data set [2] (ingestion prior to sleep) is given as “beneficial effect on the subjective quality of sleep”. Regarding `N[C@@H](CO)C(=O)O` [serine], the “resistance or rebound insomnia after discontinuation of ingestion” value in data set [3] (after discontinuation of ingestion) is reported as “did not appear to suffer from resistance or occurrence of rebound insomnia”. In addition, the “quality of sleep (sleep initiation, nighttime awakenings)” value in data set [3] (ingestion about 30 minutes before going to sleep) is recorded as “beneficial effect on the quality of sleep”. Consider picrotoxin, for which the “effect on sedative and hypnotic effect of serine” value with GABAA receptor was “attenuated the sedative and hypnotic effect of serine”.
